The target in data set [1] is T1, recombinant human transglutaminase 2 (Homo sapiens, UniProt P21980).
T1 construct: purchased Zedira T022
T1 sequence (P21980 1-687): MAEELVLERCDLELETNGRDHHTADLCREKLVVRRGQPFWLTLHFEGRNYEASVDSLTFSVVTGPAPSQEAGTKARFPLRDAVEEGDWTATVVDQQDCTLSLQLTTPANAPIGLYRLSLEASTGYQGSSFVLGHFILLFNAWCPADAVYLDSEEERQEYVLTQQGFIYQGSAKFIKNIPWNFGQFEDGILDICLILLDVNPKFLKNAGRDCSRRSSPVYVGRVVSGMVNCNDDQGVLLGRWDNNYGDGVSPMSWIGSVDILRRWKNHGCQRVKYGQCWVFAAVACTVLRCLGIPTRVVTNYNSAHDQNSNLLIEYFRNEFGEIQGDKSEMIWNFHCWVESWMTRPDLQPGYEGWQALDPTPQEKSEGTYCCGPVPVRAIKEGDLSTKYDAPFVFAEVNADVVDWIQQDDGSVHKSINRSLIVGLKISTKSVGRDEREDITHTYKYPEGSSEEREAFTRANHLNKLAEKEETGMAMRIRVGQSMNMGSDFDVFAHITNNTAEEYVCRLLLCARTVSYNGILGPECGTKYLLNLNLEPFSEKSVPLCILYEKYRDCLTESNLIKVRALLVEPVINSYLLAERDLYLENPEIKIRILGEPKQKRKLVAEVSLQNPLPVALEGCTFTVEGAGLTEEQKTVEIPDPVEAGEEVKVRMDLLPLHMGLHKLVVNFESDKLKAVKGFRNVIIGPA
The data set can be described thus: Transglutaminase assay (dansylcadaverine incorporation into dimethylcasein, DCC-assay). The settings on record: recombinant human TG2 10 nM, dansylcadaverine/dimethylcasein, 37° C. The format is biochemical. In a few lines:
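IC50 derived from fluorescence slope between 20 and 30 min (λex 330 nm, λem 500 nm, 37 °C), expressed relative to a 2% DMSO control. Reaction: 10 nM recombinant human TG2, 4 μM dimethylcasein, 16.7 μM dansylcadaverine, 10 mM CaCl2 and glutathione, pH 8.0.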

Data set [2] in a line: Log D shake flask method (octanol / PBS pH 7.4, HPLC). The format is physicochemical. The settings on record: octanol/phosphate-buffered saline (PBS); octanol / PBS pH 7.4, shake flask. As to the method: In order to classify the inventive compounds according to their lipophilicity, Log D values (distribution coefficient) were determined by means of the well-established shake flask method, measuring the partition of a compound between an octanol and phosphate-buffered saline (PBS, pH 7.4) by HPLC.

Data set [3] can be described thus: Caco-2 permeability assay (CacoReady kit). The format is in vitro ADME. The settings on record: human. In a few lines:
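Read-out is the permeability coefficient Papp, obtained from transport across a Caco-2 barrier prepared from a ready-to-use kit following the manufacturer's instructions.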
For orientation: Passage across Caco-2 layers is used to estimate intestinal permeability.

A value given as a limit tells only on which side of the number the result lay.

As a reminder, the IC50 is the concentration needed to halve the response being measured. Broadly, the logD is lipophilicity at a set pH, counting ionised and neutral species. A high value points to higher lipophilicity. For orientation: Papp means the rate of passage across a membrane or cell layer, normalised by area and donor concentration. Read a low Papp as poor permeation. `COC(=O)/C=C/CC[C@H](NC(=O)c1sc(C(F)(F)F)nc1C)C(=O)Nc1cccn(CC(=O)NC23CC4(C)CC(C)(CC(C)(C4)C2)C3)c1=O` [III-95, (S,E)-methyl 7-(1-(2-(3,5,7-trimethyl-1-adamantylamino)-2-oxoethyl)-2-oxo-1,2-dihydropyridin-3-ylamino)-6-(4-methyl-2-(trifluoromethyl)thiazole-5-carboxamido)-7-oxohept-2-enoate]: the IC50 in data set [1] is below 0.025 µM. This molecule also showed a logD in data set [2] of 3 to 5. In data set [3], this molecule came in with a Papp of 1 to 10 ×10⁻⁶ cm/s.

For the molecule `COC(=O)/C=C/CC[C@H](NC(=O)c1cnnn1C)C(=O)Nc1cccn(CC(=O)N[C@@H]2C[C@H]3CC[C@@H]2C3)c1=O` [III-96, (S,E)-methyl 7-(1-(2-((1R,2R,4S)-bicyclo[2.2.1]heptan-2-ylamino)-2-oxoethyl)-2-oxo-1,2-dihydropyridin-3-ylamino)-6-(1-methyl-1H-1,2,3-triazole-5-carboxamido)-7-oxohept-2-enoate], the IC50 in data set [1] was below 0.025 µM. Also, in data set [2], the logD is below 1. Moreover, the Papp in data set [3] lay within 1 to 10 ×10⁻⁶ cm/s.

Take `COC(=O)/C=C/CC[C@H](NC(=O)c1cc(Cl)sc1Cl)C(=O)Nc1cccn(CC(=O)N[C@@H]2C[C@H]3CC[C@@H]2C3)c1=O` [III-97, (S,E)-methyl 7-(1-(2-((1R,2R,4S)-bicyclo[2.2.1]heptan-2-ylamino)-2-oxoethyl)-2-oxo-1,2-dihydropyridin-3-ylamino)-6-(2,5-dichlorothiophene-3-carboxamido)-7-oxohept-2-enoate]: the IC50 in data set [1] was below 0.025 µM. Moreover, in data set [2], the logD is 3 to 5. In addition, the Papp in data set [3] is 1 to 10 ×10⁻⁶ cm/s.

On to `COC(=O)/C=C/CC[C@H](NC(=O)c1sc(C(F)(F)F)nc1C)C(=O)Nc1cccn(CC(=O)N[C@@H]2C[C@H]3CC[C@@H]2C3)c1=O` [III-98, (S,E)-methyl 7-(1-(2-((1R,2R,4S)-bicyclo[2.2.1]heptan-2-ylamino)-2-oxoethyl)-2-oxo-1,2-dihydropyridin-3-ylamino)-6-(4-methyl-2-(trifluoromethyl)thiazole-5-carboxamido)-7-oxohept-2-enoate], for which the IC50 in data set [1] was below 0.025 µM. Moreover, the logD in data set [2] is 1 to 3. The molecule further displayed a Papp in data set [3] of 1 to 10 ×10⁻⁶ cm/s.

On to `CCOC(=O)/C=C/CC[C@H](NC(=O)c1cncn1C)C(=O)Nc1cccn(CC(=O)NC2C3CC4CC(C3)CC2C4)c1=O` (stereo partly drawn) [III-99, (S,E)-ethyl 7-(1-(2-(2-adamantylamino)-2-oxoethyl)-2-oxo-1,2-dihydropyridin-3-ylamino)-6-(1-methyl-1H-imidazole-5-carboxamido)-7-oxohept-2-enoate], for which, in data set [1], the IC50 was in the range of 0.025 to 0.25 µM. In data set [2], this molecule gave a logD of 3 to 5. The molecule further had a Papp in data set [3] below 1 ×10⁻⁶ cm/s.

`Cn1cncc1C(=O)N[C@@H](CC/C=C/S(C)(=O)=O)C(=O)Nc1cccn(CC(=O)NC2C3CC4CC(C3)CC2C4)c1=O` (stereo partly drawn) [III-100, (S,E)-N-(1-(1-(2-(2-adamantylamino)-2-oxoethyl)-2-oxo-1,2-dihydropyridin-3-ylamino)-6-(methylsulfonyl)-1-oxohex-5-en-2-yl)-1-methyl-1H-imidazole-5-carboxamide]: the concentration for half-maximal inhibition (IC50) in data set [1] lay within 0.025 to 0.25 µM. This molecule also returned a logD in data set [2] of 1 to 3. Besides, the Papp in data set [3] is below 1 ×10⁻⁶ cm/s.

On to `COC(=O)/C=C/CC[C@H](NC(=O)c1cn[nH]n1)C(=O)Nc1cccn(CC(=O)NC2C3CC4CC(C3)CC2C4)c1=O` (stereo partly drawn) [III-101, (S,E)-methyl 7-(1-(2-(2-adamantylamino)-2-oxoethyl)-2-oxo-1,2-dihydropyridin-3-ylamino)-7-oxo-6-(2H-1,2,3-triazole-4-carboxamido)hept-2-enoate], for which the 50% inhibitory concentration (IC50) in data set [1] was 0.025 to 0.25 µM. Further, the logD in data set [2] was in the range of 1 to 3. In data set [3], this molecule gave a Papp below 1 ×10⁻⁶ cm/s.

For the molecule `COC(=O)/C=C/CC[C@H](NC(=O)c1cn(C)nn1)C(=O)Nc1cccn(CC(=O)NC2C3CC4CC(C3)CC2C4)c1=O` (stereo partly drawn) [III-103, (S,E)-methyl 7-(1-(2-(2-adamantylamino)-2-oxoethyl)-2-oxo-1,2-dihydropyridin-3-ylamino)-6-(1-methyl-1H-1,2,3-triazole-4-carboxamido)-7-oxohept-2-enoate], the IC50 in data set [1] lay within 0.025 to 0.25 µM. Also, the logD in data set [2] fell in the range of 1 to 3. Moreover, the Papp in data set [3] lay within 1 to 10 ×10⁻⁶ cm/s.

Take `COC(=O)/C=C/CC[C@H](NC(=O)c1nc[nH]n1)C(=O)Nc1cccn(CC(=O)NC2C3CC4CC(C3)CC2C4)c1=O` (stereo partly drawn) [III-104, (S,E)-methyl 7-(1-(2-(2-adamantylamino)-2-oxoethyl)-2-oxo-1,2-dihydropyridin-3-ylamino)-7-oxo-6-(1H-1,2,4-triazole-3-carboxamido)hept-2-enoate]: the IC50 in data set [1] fell in the range of 0.025 to 0.25 µM. In addition, the logD in data set [2] was in the range of 1 to 3. Also, in data set [3], the Papp was below 1 ×10⁻⁶ cm/s.

As to `COC(=O)/C=C/CC[C@H](NC(=O)c1ncn(C)n1)C(=O)Nc1cccn(CC(=O)NC2C3CC4CC(C3)CC2C4)c1=O` (stereo partly drawn) [III-105, (S,E)-methyl 7-(1-(2-(2-adamantylamino)-2-oxoethyl)-2-oxo-1,2-dihydropyridin-3-ylamino)-6-(1-methyl-1H-1,2,4-triazole-3-carboxamido)-7-oxohept-2-enoate], the IC50 in data set [1] lay within 0.025 to 0.25 µM. The same molecule gave a logD in data set [2] of 1 to 3. Also, the Papp in data set [3] lay within 1 to 10 ×10⁻⁶ cm/s.

On to `COC(=O)/C=C/CC[C@H](NC(=O)c1coc2ccccc12)C(=O)Nc1cccn(CC(=O)NC2C3CC4CC(C3)CC2C4)c1=O` (stereo partly drawn) [III-106, (S,E)-methyl 6-(benzofuran-3-carboxamido)-7-(1-(2-(2-adamantylamino)-2-oxoethyl)-2-oxo-1,2-dihydropyridin-3-ylamino)-7-oxohept-2-enoate], for which the IC50 in data set [1] is 0.025 to 0.25 µM. In addition, the logD in data set [2] lay within 3 to 5. Further, in data set [3], the Papp lay in the range of 1 to 10 ×10⁻⁶ cm/s.

As for `COC(=O)/C=C/CC[C@H](NC(=O)c1csc2ccccc12)C(=O)Nc1cccn(CC(=O)NC2C3CC4CC(C3)CC2C4)c1=O` (stereo partly drawn) [III-107, (S,E)-methyl 6-(benzo[b]thiophene-3-carboxamido)-7-(1-(2-(2-adamantylamino)-2-oxoethyl)-2-oxo-1,2-dihydropyridin-3-ylamino)-7-oxohept-2-enoate], in data set [1], the IC50 lay in the range of 0.025 to 0.25 µM. The molecule also came in with a logD in data set [2] of 3 to 5. This molecule also had a Papp in data set [3] of 1 to 10 ×10⁻⁶ cm/s.

In the case of `COC(=O)/C=C/CC[C@H](NC(=O)c1snnc1C)C(=O)Nc1cccn(CC(=O)NC23CC4(C)CC(C)(CC(C)(C4)C2)C3)c1=O` [III-108, (S,E)-methyl 7-(1-(2-(3,5,7-trimethyl-1-adamantylamino)-2-oxoethyl)-2-oxo-1,2-dihydropyridin-3-ylamino)-6-(4-methyl-1,2,3-thiadiazole-5-carboxamido)-7-oxohept-2-enoate], the IC50 in data set [1] was below 0.025 µM. The molecule also had a logD in data set [2] of 3 to 5. In data set [3], this molecule yielded a Papp below 1 ×10⁻⁶ cm/s.

In the case of `COC(=O)/C=C/CC[C@H](NC(=O)c1ccnn1C)C(=O)Nc1cccn(CC(=O)NC23CC4(C)CC(C)(CC(C)(C4)C2)C3)c1=O` [III-109, (S,E)-methyl 7-(1-(2-(3,5,7-trimethyl-1-adamantylamino)-2-oxoethyl)-2-oxo-1,2-dihydropyridin-3-ylamino)-6-(1-methyl-1H-pyrazole-5-carboxamido)-7-oxohept-2-enoate], the IC50 in data set [1] is below 0.025 µM. Also, the logD in data set [2] lay in the range of 3 to 5. Further, in data set [3], the Papp was below 1 ×10⁻⁶ cm/s.

Source of the values: patent publication US20240317708A1, “INHIBITORS OF TRANSGLUTAMINASES” (ZEDIRA GMBH, priority 2021, published 2024).
